In US7011938B2, “Method of measuring platelet activation” (Barts and The London NHS Trust, priority 2000, dated 2006):
Values joined by “and” are separate entries in the source; they are usually repeats but may differ in a detail not shown here. Equal values may be shown once. Where a name gives a salt, the structure may show the parent alone.

Experiments:
whole blood = experiment: Comparison of ADVIA 120 haematology results in anticoagulated blood; assay type: cell-based, human; details: Table 2, Mean (+/-S.E.) at 30 minutes, 7 control samples
Protocol: (§1) Whole blood samples were taken into Vacutainer™ containers that contained either K3EDTA, or CTAD, or a mixture of K3EDTA and CTAD (E/C). For the latter, blood was collected first into K3EDTA and then immediately transferred to a Vacutainer™ containing CTAD. Samples were held at ambient temperature, analysed immediately and at 30, 60, 120, and 180 min after venesection. Analysis of platelet count (PLT), mean platelet volume (MPV) and mean platelet component concentration (MPC) was done using the ADVIA®120 haematology system (Bayer Corporation, Tarrytown, N.Y.) Platelet counts made in blood anticoagulated with CTAD and E/C were corrected for dilution (dilution factors were 1.11 and 1.125 respectively). The system was calibrated and standardised prior to use with ADVIA®-SETpoint Haematology Control and ADVIA® OPTIpoint, respectively (Bayer Corporation). In one series of experiments (n=4) these analyses were performed on blood samples anticoagulated with E/C but held at ambient temperature and at 4° C. to investigate the effect of cooling on platelet activation.

[1] = system: platelet leucocyte aggregates in whole blood; experiment: Platelet-leucocyte aggregates (PLAs) by flow cytometry; assay type: cell-based, human
Protocol: (§2) Measurement of the expression CD62P and the number of leucocyte platelet aggregates (PLAs). Anti-coagulated blood (5 μl) was incubated at room temperature with either FITC CD62P (5 μl) or FITC isotype control (5 μl), or PE CD45 (5 μl) and FITC isotype control (5 μl) or FITC CD42a (5 μl) and PE CD45 (5 μl), in 90 μl of TS for 5 min. Samples were diluted to 1 ml with TS and analysed immediately by flow cytometry.
(§3) Flow cytometry. Blood cells were analysed on a FACScan (Becton Dickinson, Oxford, UK) equipped with CellQuest® software. The flow cytometer was calibrated prior to use with fluorochrome labelled beads (Fluorospheres™, Dako).
For the analysis of platelet-leucocyte aggregates (FIG. 2), cells were analysed in a histogram of side scatter (logarithmic scale ordinate) and orange fluorescence (logarithmic scale abscissa). Leucocytes identified by their positive staining with PE CD45 were gated to a histogram of green fluorescence (logarithmic scale ordinate) and orange fluorescence (logarithmic scale abscissa). Events that were both green and orange were considered platelet leucocyte aggregates and recorded as a percentage of a total of 10,000 gated leucocytes.
As Example 1. Platelet-leucocyte aggregates could then be gated to a histogram (C) of side scatter (logarithmic scale ordinate) and orange fluorescence (logarithmic scale abscissa) to identify, by their characteristic SLS, which leucocytes were forming PLAs.

platelets in whole blood [2] = experiment: Expression of CD62P on platelets by flow cytometry; assay type: cell-based, human; details: for CD62P % expression in blood: Example 1, n=6, mean±se; for CD62P % positive platelets in blood: Example 3, at RT
Protocol: as §2, §3
For the analysis of CD62P expression data was acquired in real time with a primary gate set on a dual parameter histogram of forward light scatter (FLS) logarithmic scale (abscissa) and side light scatter (SLS) logarithmic scale (ordinate). This facilitated identification of the platelets within the blood and was confirmed by the analysis of CD42a expression (FIG. 1). Background fluorescence was assessed with platelets labelled with the FITC conjugated isotype control antibody. Cursors were set in a single parameter histogram of frequency (ordinate) and green fluorescence intensity (abscissa), so that less than 1% of the platelets stained positively with the control antibody. Changes in CD62P expression (green fluorescence logarithmic scale), together with those of FLS and SLS, were then recorded on the gated platelets.

platelets [3] = details: room temperature; on average; Threatte et al., 1984; cited from earlier work
platelets in whole blood [4] = experiment: Assessment of platelet activation on the ADVIA 120 (PLT, MPV, MPC, PCDW, MPM); assay type: cell-based, human; details: for Platelet count in blood: CTAD and E/C corrected for dilution; for Platelet counts in blood: Example 3 Table 1, ambient temperature, mean of 7
Protocol: Assessment of platelet activation on the ADVIA 120. Whole blood samples were taken into Vacutainer™ containers (Becton Dickinson) containing either EDTA, CTAD, or a mixture of EDTA and CTAD (E/C). Samples were analysed immediately post-venesection and at timed intervals of 30, 60, 120, and 180 minutes post venesection. Analysis of platelet count (PLT), mean platelet volume (MPV), mean platelet component (MPC) and mean platelet component distributionwidth (PCDW) was performed using the ADVIA 120 Haematology System (Bayer Corporation, Tarrytown, N.Y.) calibrated prior to use with ADVIA TESTpoint Haematology Control reagents. (Bayer Corporation, Tarrytown, N.Y.).
Whole blood samples were taken into Vacutainer™ containers (Becton Dickinson) containing EDTA and mixed with the aforementioned platelet antagonists, or with CTAD (this mixture is referred to as E/C). Samples were analysed as in Example 1.
as §1

platelets [5] = details: over a period of 1–2 h; impedance procedures; depends on sodium citrate concentration; cited from earlier work
[6] = Example 1, 30 min, n=6, mean±se
[7] = Example 1, 60 min, n=6, mean±se
[8] = Example 1, 120 min, n=6, mean±se
[9] = Example 1, 180 min, n=6, mean±se

O=C(O)CN(CCN(CC(=O)O)CC(=O)O)CC(=O)O [EDTA, Ethylenediaminetetra-acetic acid]
MPC (whole blood): 29.1 (0.52) g/dL
MPV (whole blood): 7.7 (0.27) fL
PCDW (whole blood): 5.00 (0.09) g/dL
PCT (whole blood): 0.19 (0.01) %
PDW (whole blood): 58.9 (3.24) %
PLT (whole blood; CTAD ×1.11, E/C ×1.125): 246 (14) 109/L
% platelet leucocyte aggregates in blood ([1]; Example 1, 0 min, n=6, mean±se): 3.50±0.50%
% platelet leucocyte aggregates in blood [1, 6]: 4.16 ± 0.86%
% platelet leucocyte aggregates in blood [1, 7]: 8.87 ± 1.54%
% platelet leucocyte aggregates in blood [1, 8]: 8.50 ± 1.44%
% platelet leucocyte aggregates in blood [1, 9]: 13.50±2.41%
% platelet leucocyte aggregates in blood ([1]; Example 3, at RT, 0 min): 3.30 ± 0.5%
% platelet leucocyte aggregates in blood ([1]; Example 3, at RT, 0 min, listed as K3EDTA): 3.50±0.71%
% platelet leucocyte aggregates in blood ([1]; Example 3, at RT, 30 min): 4.16 ± 0.86%
% platelet leucocyte aggregates in blood ([1]; Example 3, at RT, 60 min): 8.87 ± 1.54%
% platelet leucocyte aggregates in blood ([1]; Example 3, at RT, 120 min): 8.50 ± .44%
% platelet leucocyte aggregates in blood ([1]; Example 3, at RT, 180 min): 13.50 ± 1.74%
% platelet leucocyte aggregates in blood ([1]; Example 3, at RT, 180 min, listed as K3EDTA): 13.50±1.74%
CD62P % expression in blood (platelets in whole blood [2]; 0 min post venesection): 1.10 ± 0.24%
CD62P % expression in blood (platelets in whole blood [2]; 30 min): 3.71 ± .04%
CD62P % expression in blood (platelets in whole blood [2]; 60 min): 11.27 ± .60%
CD62P % expression in blood (platelets in whole blood [2]; 120 min): 18.94 ± 2.53%
CD62P % expression in blood (platelets in whole blood [2]; 180 min): 23.05±2.79%
CD62P % positive platelets in blood (platelets in whole blood [2]; 0 min): 1.10 ± 0.24%
CD62P % positive platelets in blood (platelets in whole blood [2]; 0 min, listed as K3EDTA): 1.10±0.61%
CD62P % positive platelets in blood (platelets in whole blood [2]; 30 min): 3.71 ± 1.04%
CD62P % positive platelets in blood (platelets in whole blood [2]; 60 min): 11.27 ± 1.60%
CD62P % positive platelets in blood (platelets in whole blood [2]; 120 min): 18.94 ± 2.53%
CD62P % positive platelets in blood (platelets in whole blood [2]; 180 min): 23.05 ± 2.79%
CD62P % positive platelets in blood (platelets in whole blood [2]; 180 min, listed as K3EDTA): 23.05±1.54%
MPV greater than in corresponding citrate anticoagulated blood (platelets [3]): 23%
Platelet count in blood (platelets in whole blood [4]; Example 1, 0 min, n=6): 235±12
MPC in blood (platelets in whole blood [4]; Example 1, 0 min, n=6, mean±se): 28.0 ± 0.87 g/dL
MPV in blood (platelets in whole blood [4]; Example 1, 0 min, n=6, mean±se): 8.0 ± 0.37 fL
PCDW in blood (platelets in whole blood [4]; Example 1, 0 min, n=6, mean±se): 5.85 ± 0.28 g/dL
Platelet count in blood (platelets in whole blood [4]; Example 1, 30 min, n=6): 246 ± 14
MPC in blood (platelets in whole blood [4]; [6]): 29.1 ± 0.52 g/dL
MPV in blood (platelets in whole blood [4]; [6]): 7.7 ± 0.27 fL
PCDW in blood (platelets in whole blood [4]; [6]): 5.00 ± 0.09 g/dL
Platelet count in blood (platelets in whole blood [4]; Example 1, 60 min, n=6): 249 ± 14
MPC in blood (platelets in whole blood [4]; [7]): 28.8 ± 0.42 g/dL
MPV in blood (platelets in whole blood [4]; [7]): 7.7 ± 0.24 fL
PCDW in blood (platelets in whole blood [4]; [7]): 5.00 ± 0.12 g/dL
Platelet count in blood (platelets in whole blood [4]; Example 1, 120 min, n=6): 247 ± 14
MPC in blood (platelets in whole blood [4]; [8]): 27.9 ± 0.48 g/dL
MPV in blood (platelets in whole blood [4]; [8]): 8.0 ± 0.30 fL
PCDW in blood (platelets in whole blood [4]; [8]): 4.80 ± 0.11 g/dL
Platelet count in blood (platelets in whole blood [4]; Example 1, 180 min, n=6): 246 ± 5
MPC in blood (platelets in whole blood [4]; [9]): 27.1 ± 0.36 g/dL
MPV in blood (platelets in whole blood [4]; [9]): 8.1 ± 0.21 fL
PCDW in blood (platelets in whole blood [4]; [9]): 4.80 ± 0.08 g/dL and 4.80 ± 0.06 g/dL
MPC in blood (platelets in whole blood [4]; Example 3, at RT, 0 min): 2.8e-12 ± 8.7e-14 g/dL
MPV in blood (platelets in whole blood [4]; Example 3, at RT, 0 min): 8.0 ± 0.37 fL
MPC in blood (platelets in whole blood [4]; Example 3, at RT, 30 min): 2.91e-12 ± 5.2e-14 g/dL
MPV in blood (platelets in whole blood [4]; Example 3, at RT, 30 min): 7.7 ± 0.27 fL
MPC in blood (platelets in whole blood [4]; Example 3, at RT, 60 min): 2.88e-12 ± 4.2e-14 g/dL
MPV in blood (platelets in whole blood [4]; Example 3, at RT, 60 min): 7.7 ± 0.24 fL
MPC in blood (platelets in whole blood [4]; Example 3, at RT, 120 min): 2.79e-12 ± 4.8e-14 g/dL
MPV in blood (platelets in whole blood [4]; Example 3, at RT, 120 min): 8.0 ± 0.30 fL
MPC in blood (platelets in whole blood [4]; Example 3, at RT, 180 min): 2.71e-12 ± 3.6e-14 g/dL
MPV in blood (platelets in whole blood [4]; Example 3, at RT, 180 min): 8.1 ± 0.21 fL
Platelet counts in blood (platelets in whole blood [4]; 0 min): 235 ± 13
Platelet counts in blood (platelets in whole blood [4]; 30 min): 246 ± 14
Platelet counts in blood (platelets in whole blood [4]; 180 min): 246 ± 5

O=C(O)CC(O)(CC(=O)O)C(=O)O [citrate, trisodium citrate]
increase in platelet volume (platelets [5]): 3–10%
